# Results taken from ChEMBL document CHEMBL4428041, “Identification and SAR Evaluation of Hemozoin-Inhibiting Benzamides Active against Plasmodium falciparum” (J Med Chem, 2016).
# Active and inactive are the calls of the source. The rule behind the calls is not given here.
# How the values were obtained:
# Ferriprotoporphyrin IX [1] = test: Binding affinity to Fe(3)PP9 solution assessed as ferriprotoporphyrin 9 complex formation by measuring compound concentration causing pink precipitate formation at <=5500 uM
# Hemozoin [2] = test: Inhibition of beta-hematin in water/NP40/DMSO solution incubated for 5 to 6hrs by detergent-mediated pyridine-ferrichrome method
# Plasmodium falciparum [3] = test: Antimalarial activity against CQ-sensitive Plasmodium falciparum NF54 infected in human type O+ erythrocytes assessed as growth inhibition incubated for 48 hrs by LDH assay; format: functional, organism-based; conditions: NF54, 48 h
# Plasmodium falciparum [4] = test: Antimalarial activity against CQ-sensitive Plasmodium falciparum D10 infected in human type O+ erythrocytes assessed as growth inhibition incubated for 48 hrs by LDH assay; format: functional, organism-based; conditions: D10, 48 h
# Ferriprotoporphyrin IX [5] = test: Binding affinity to Fe(3)PP9 solution assessed as ferriprotoporphyrin 9 complex formation by measuring pink precipitate formation at <=5500 uM
# Ferriprotoporphyrin IX [6] = tested on: Ferriprotoporphyrin IX
# Description: Binding affinity to Fe(3)PP9 in hematin solution at pH 7.5 by titration-based UV-vis spectrophotometrical analysis
# Plasmodium falciparum [7] = test: Antimalarial activity against Plasmodium falciparum D6 infected in red blood cells assessed as growth inhibition by SYBR green1 fluorescence-based assay; format: functional, organism-based
# Hemozoin [8] = test: Inhibition of beta-hematin incubated for 6 hrs by NP40 detergent-mediated assay
# Hemozoin [9] = test: Inhibition of hemozoin formation in CQ-sensitive Plasmodium falciparum D10 infected in human type O+ erythrocytes assessed as increase in free heme incubated for 32 hrs by cell fractionation assay; format: cell-based; conditions: Erythrocyte
# Hemozoin [10] = test: Inhibition of hemozoin formation in CQ-sensitive Plasmodium falciparum D10 infected in human type O+ erythrocytes assessed as decrease in hemozoin formation incubated for 32 hrs by cell fractionation assay; format: cell-based; conditions: Erythrocyte
Structure (SMILES),Activity (Ferriprotoporphyrin IX [1]),IC50 (Hemozoin [2]),IC50 (Plasmodium falciparum [3]),further results
O=C(Nc1ccncc1)c1cccc(Cl)c1,1300 to 2300 µM,,,
Cc1cc(C(=O)Nc2ccccc2)cc(C(=O)Nc2ccccc2)c1,,> 1000 µM,146 µM,
O=C(Nc1ccccc1)c1cccc(C(=O)Nc2ccccc2)c1,,> 1000 µM,> 314 µM,
N#Cc1cc(C(=O)Nc2ccccc2)cc(C(=O)Nc2ccccc2)c1,,4.4 µM,,IC50 (Plasmodium falciparum [4]): 5200 nM
O=C(Nc1ccncc1)c1ccccc1,inactive,> 5500 µM,,Activity (Ferriprotoporphyrin IX [5]): inactive
Cc1cc(C(=O)Nc2ccncc2)cc(C(=O)Nc2ccncc2)c1,,8 µM,2.5 µM,log K (Ferriprotoporphyrin IX [6]): 3.92
O=C(Nc1ccccc1)c1cc(C(=O)Nc2ccccc2)cc([N+](=O)[O-])c1,,7 µM,1.4 µM,
O=C(Nc1ccncc1)c1ccc(Cl)cc1,4500 to 5500 µM,,,
Cc1ccc(C(=O)Nc2ccncc2)cc1,inactive,> 5500 µM,,Activity (Ferriprotoporphyrin IX [5]): inactive
COc1cc(C(=O)Nc2ccccc2)cc(C(=O)Nc2ccccc2)c1,,> 1000 µM,37 µM,
O=C(Nc1ccncc1)c1ccc([N+](=O)[O-])cc1,inactive,> 5500 µM,,Activity (Ferriprotoporphyrin IX [5]): inactive
O=C(Nc1ccncc1)c1cc([N+](=O)[O-])cc([N+](=O)[O-])c1,,10.9 µM,2.3 µM,IC50 (Plasmodium falciparum [4]): 2400 nM; IC50 (Plasmodium falciparum [7]): 4.76 µM; IC50 (Hemozoin [8]): 9.04 µM
O=C(Nc1cccnc1)c1cc([N+](=O)[O-])cc([N+](=O)[O-])c1,,13 µM,5 µM,inhibition (Hemozoin [9]): Dose-dependent effect; IC50 (Plasmodium falciparum [4]): 2300 nM; inhibition (Hemozoin [10]): Dose-dependent effect

# More lines, main results first:
Activity (Ferriprotoporphyrin IX [1]),IC50 (Hemozoin [2]),Structure (SMILES),IC50 (Plasmodium falciparum [3]),further results
,22 µM,COc1cc(C(=O)Nc2ccncc2)cc(C(=O)Nc2ccncc2)c1,3 µM,
,> 1000 µM,O=C(Nc1ccccc1)c1cccc(C(=O)Nc2ccccc2)n1,> 315 µM,
,4.7 µM,O=C(Nc1cccnc1)c1cc(C(=O)Nc2cccnc2)cc([N+](=O)[O-])c1,1.32 µM,
,31.5 µM,CCN(CC)CCCC(C)Nc1ccnc2cc(Cl)ccc12 (centres undefined) [CHLOROQUINE],,
700 to 1300 µM,,O=C(Nc1ccncc1)c1ccc(Cl)c(Cl)c1,,
,507 µM,O=C(Nc1ccncc1)c1cccc(C(=O)Nc2ccncc2)c1,9 µM,
